Measured values reported in patent publication US12441768B2, “Compositions and methods for treating endometriosis” (EndoMet Biosciences, Inc., priority 2018, dated 2025).
Read-outs that look alike come from different tables or passages of the source. Where a SMILES comes first, the peptide text is derived from it.

Legend:
[1] = % Viability non-Wnt responsive cells
[2] = biological target: Wnt-responsive promoter (TCF/LEF); assay: Wnt-dependent luciferase reporter assay; type: cell-based, murine
Outline: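 EC50 (uM) derived from inhibition of luminescence in Wnt3a-stimulated murine 3T3 cells expressing luciferase under a TCF/LEF promoter, with peptides added across a concentration range and vehicle as control.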

[3] = biological target: T1, β-catenin (Homo sapiens, UniProt P35222); assay: KD50 measurement using competitive fluorescence polarization (FP) with labelled TCF4; type: binding; settings: fluorescence polarization, β-catenin
T1 sequence (P35222 1-781): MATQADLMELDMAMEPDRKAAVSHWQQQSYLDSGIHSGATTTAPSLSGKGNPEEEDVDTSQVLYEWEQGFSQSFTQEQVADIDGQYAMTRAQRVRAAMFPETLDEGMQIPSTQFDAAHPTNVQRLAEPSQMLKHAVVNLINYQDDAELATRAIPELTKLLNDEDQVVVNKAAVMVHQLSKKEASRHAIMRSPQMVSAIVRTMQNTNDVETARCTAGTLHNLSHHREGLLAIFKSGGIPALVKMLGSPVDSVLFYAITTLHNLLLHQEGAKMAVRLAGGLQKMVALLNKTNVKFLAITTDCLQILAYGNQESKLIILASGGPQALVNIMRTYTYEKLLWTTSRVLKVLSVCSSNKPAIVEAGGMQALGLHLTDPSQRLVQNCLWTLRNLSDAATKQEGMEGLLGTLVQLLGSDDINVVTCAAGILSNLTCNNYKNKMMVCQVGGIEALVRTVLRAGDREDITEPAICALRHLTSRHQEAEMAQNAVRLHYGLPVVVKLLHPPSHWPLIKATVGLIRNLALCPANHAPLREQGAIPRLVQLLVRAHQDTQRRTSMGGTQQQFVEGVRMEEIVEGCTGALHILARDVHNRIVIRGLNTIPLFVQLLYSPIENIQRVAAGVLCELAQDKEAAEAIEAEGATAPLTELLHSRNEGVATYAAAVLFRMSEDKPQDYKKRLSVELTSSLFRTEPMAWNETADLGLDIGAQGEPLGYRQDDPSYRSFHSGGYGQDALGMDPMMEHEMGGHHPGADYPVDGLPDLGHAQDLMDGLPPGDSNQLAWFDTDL
Outline: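 Polarization readout (470 nm excitation, 520 nm emission) tracks loss of labelled TCF4 binding to β-catenin as test compound competes. Conditions were 5 nM tracer, 100 nM β-catenin, room temperature, compound serially diluted from 10 nM to 30 uM; run in triplicate experiments.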

EC50 [2] [µM]	Kd ([3]; read-out: β-Cat FP KD) [µM]	β-Cat FP Hill slope [3]	Structure (SMILES)	viability [1] [%]	Kd ([3]; β-Cat FP KD) [µM]
> 30	–	–	CC[C@H](C)[C@@H]1NC(=O)[C@H](CC(C)C)NC(=O)[C@H](Cc2ccc(O)cc2)NC(=O)[C@H](Cc2c[nH]c3ccccc23)NC(=O)[C@H](CCSC)NC(=O)[C@H](CCCNC(=N)N)NC(=O)[C@H](CO)NC(=O)[C@H](CCSC)NC(=O)[C@@H](N)CCCCNC(=O)[C@H](Cc2c[nH]c3ccccc23)NC(=O)[C@H](Cc2ccccc2)NC(=O)[C@H](CO)NC1=O [compound 31] (HELM PEPTIDE1{K.M.S.R.M.W.Y.L.I.S.F.W}$PEPTIDE1,PEPTIDE1,1:R3-12:R2$$$V2.0; bridges inferred)	89	–
–	1 to 10	–	CC[C@H](C)[C@H](NC(=O)[C@H](CC(C)C)NC(=O)[C@H](Cc1ccccc1)NC(=O)[C@H](Cc1c[nH]c2ccccc12)NC(=O)[C@@H](N)CCSC)C(=O)N[C@@H](CS)C(=O)N[C@@H](Cc1ccccc1)C(=O)N[C@@H](Cc1c[nH]c2ccccc12)C(=O)N(C)CC(=O)O [compound 213] (HELM PEPTIDE1{M.W.F.L.I.C.F.W.[Sar]}$$$$V2.0)	112	–
–	< 0.4	–	CC[C@H](C)[C@H](NC(=O)[C@H](CC(C)C)NC(=O)[C@@H](NC(=O)[C@H](Cc1c[nH]c2ccccc12)NC(=O)[C@H](CCSC)NC(C)=O)[C@@H](C)CC)C(=O)N[C@@H](CO)C(=O)N[C@@H](Cc1ccccc1)C(=O)N[C@@H](Cc1c[nH]c2ccccc12)C(=O)N(C)CC(=O)O [compound 221] (HELM PEPTIDE1{[ac].M.W.I.L.I.S.F.W.[Sar]}$$$$V2.0)	101	–
< 7.5	–	0.7	CCCCCCCCCCCC(=O)N[C@@H](Cc1c[nH]c2ccccc12)C(=O)N(C)[C@@H](C)C(=O)N[C@@H](CCC(N)=O)C(=O)N[C@H]1CCCCNC(=O)CC[C@@H](C(=O)N[C@@H](Cc2c[nH]cn2)C(=O)N[C@H](C(=O)N[C@H]2CCC(=O)NCCCC[C@@H](C(N)=O)NC(=O)[C@H](Cc3c[nH]c4ccccc34)NC(=O)[C@H](C(C)C)NC(=O)[C@H](CC(=O)O)NC2=O)C2CCCCC2)NC(=O)[C@H](CC(=O)O)NC(=O)[C@H](CC(C)C)NC(=O)[C@H]([C@@H](C)CC)NC1=O [compound 465] (HELM PEPTIDE1{[CCCCCCCCCCCC(=O)[*:2]].W.[meA].Q.K.I.L.D.E.H.[O=C([C@@H](N[*:1])C1CCCCC1)[*:2]].E.D.V.W.K.[am]}$PEPTIDE1,PEPTIDE1,5:R3-9:R3|PEPTIDE1,PEPTIDE1,12:R3-16:R3$$$V2.0; bridges inferred)	–	–
7.5 to 15	< 0.4	0.89	CC[C@H](C)[C@H](NC(=O)[C@H](CO)NC(=O)[C@H](CCC(N)=O)NC(=O)[C@@H]1CCCN1C(=O)[C@H](Cc1c[nH]c2ccccc12)NC(C)=O)C(=O)N[C@@H](CC(C)C)C(=O)N[C@@H](CC(=O)O)C(=O)N[C@H]1CCC(=O)NCCCC[C@@H](C(=O)N[C@H](C(=O)N[C@@H](Cc2c[nH]c3ccccc23)C(=O)NCC(N)=O)C(C)C)NC(=O)[C@H](CCC(N)=O)NC(=O)[C@H](C2CCCCC2)NC(=O)[C@H](Cc2c[nH]cn2)NC1=O [compound 472] (HELM PEPTIDE1{[ac].W.P.Q.S.I.L.D.E.H.[O=C([C@@H](N[*:1])C1CCCCC1)[*:2]].Q.K.V.W.G.[am]}$PEPTIDE1,PEPTIDE1,9:R3-13:R3$$$V2.0)	–	–

Structure (SMILES)	EC50 [2] [µM]	Kd ([3]; read-out: β-Cat FP KD) [µM]	β-Cat FP Hill slope [3]	viability [1] [%]	Kd ([3]; β-Cat FP KD) [µM]
CC[C@H](C)[C@@H]1NC(=O)[C@@H](NC(=O)[C@H](CCC(N)=O)NC(=O)[C@H](C)N(C)C(=O)[C@H](Cc2c[nH]c3ccccc23)NC(C)=O)CCCCNC(=O)C[C@@H](C(=O)N[C@@H](Cc2c[nH]cn2)C(=O)N[C@H](C(=O)N[C@@H](CCC(N)=O)C(=O)N[C@@H](C)C(=O)N[C@H](C(N)=O)C(C)C)C2CCCCC2)NC(=O)[C@H](CC(N)=O)NC(=O)[C@H](CC(C)C)NC1=O [compound 452] (HELM PEPTIDE1{[ac].W.[meA].Q.K.I.L.N.D.H.[O=C([C@@H](N[*:1])C1CCCCC1)[*:2]].Q.A.V.[am]}$PEPTIDE1,PEPTIDE1,5:R3-9:R3$$$V2.0)	15 to 22.5	–	0.7	–	0.4 to 1
